The target in data set [1] is T1, GSPT1 HiBiT tag protein in HEK293 cells (Homo sapiens, UniProt P15170+Q96SW2).
T1 construct: HEK293_hGSPT1_HiBiT tagged cells were generated using CRISPR-Cas12a technology; endogenous in cells; host or cells: HEK293 (genome-edited at the GSPT1 locus, HiBiT knock-in)
Put plainly: hGSPT1 HiBiT assay. The format is cell-based. The settings on record: 4 hrs incubation, class symbols, read-out: GSPT1 HiBit EC50. Here is the method:
hGSPT1 HiBiT cell line. HEK293_hGSPT1_HiBiT tagged cells were generated using CRISPR-Cas12a technology. Briefly, ˜400,000 HEK293 cells were transiently co-transfecting with precomplexed ribonuclear proteins (RNPs) consisting of 80 pmol of crRNA (IDT), 62 pmol of Cas12a protein (IDT), 3 ug of ssODN donor (IDT; AItR™ modifications), 78 pmol of electroporation enhancer (IDT), and 200 ng of pMaxGFP(Lonza). The transfection was performed via nucleofection (Lonza, 4D-Nucleofector™ X-unit) using solution P3 and program CM-130 in a small (20 ul) cuvette according to the manufacturer's recommended protocol. Five days post-nucleofection, cells were single cell sorted for GFP+(transfected) cells by FACs in 96-well plates and clonally selected. Clones were screened and verified for the desired modification via targeted deep sequencing using gene specific primers with partial Illumina adapter overhangs as previously described.^58 In brief, clonal cell pellets were harvested, lysed and used to generate gene specific amplicons with partial Illumina adapters in PCR #1. Amplicons were indexed in PCR #2 and pooled with other targeted amplicons for other loci to create sequence diversity. Additionally, 10% PhiX Sequencing Control V3 (Illumina) was added to the pooled amplicon library prior to running the sample on an Miseq Sequencer System (Illumina) to generate paired 2×250 bp reads. Samples were demultiplexed using the index sequences, fastq files were generated, and NGS analysis was performed using CRIS.py.^59 Final clones were authenticated using the PowerPlex® Fusion System (Promega) performed at the Hartwell Center (St. Jude) and tested negative for mycoplasma by the MycoAlert™Plus Mycoplasma Detection Kit (Lonza). Editing construct sequences and screening primers are listed below in Table 4.
hGSPT1 HiBiT assay. […] After 4 hrs incubation, the level of GSPT1 HiBiT tag protein was evaluated using Nano-Glo® HiBiT Lytic Detection System (Promega) according to the manufacturer's instruction.

The target of another data set is T2, IKZF1 (Homo sapiens, UniProt Q13422).
T2 construct: endogenous in cells; host or cells: MV4-11
The experiment in a line: Immunoblot analysis of IKZF1 degradation in MV4-11 cells. The format is cell-based. As to conditions: for IKZF1 degradation at 4 hours: any of the concentrations tested. Here is the method: (§1) MV4-11 cells were seeded in 6-well plates (1×10^6 cells per well). After overnight incubation, the cells were treated with indicated concentrations for specific timepoints. […] After blocking the membrane with LI-COR TBS blocking buffer and incubation in primary antibody overnight, the corresponding protein signals were detected using IRDye secondary antibodies and Odyssey Imaging System. Image Studio Lite Ver 5.2 was used for blot quantification. […] IRDye®, 800CW Goat anti-Mouse IgG Secondary Antibody and IRDye® 680RD Goat anti-Rabbit IgG Secondary Antibody were used as secondary antibodies.
On the technique in general: A western blot detects proteins with antibodies after separation by electrophoresis.

A further data set can be described thus: Aqueous solubility assay. In kind it is physicochemical. As to conditions: pH = 7.4, in triplicate. Here is the method: The storage plate was sealed and incubated at RT for 18 h. The suspension was then filtered through a 96-well filter plate (pION Inc., Woburn, MA). 75 μL of filtrate was mixed with 75 μL 1-propanol to make the sample plate, and the UV spectrum of the sample plate was read. Calculations were carried out with μSOL Evolution software based on the area under the curve (AUC) of the UV spectrum of the sample and reference plates. All compounds were tested in triplicate.

Data set [2] has as its system MV4-11 cells. Put plainly: Lenalidomide competition assay. The format is cell-based, human. The settings on record: lenalidomide 10 μM, 3 days.
Experimental: Compounds were screened in human cancer cell lines and each cell line was cultured in the complete medium recommended by the vendor and seeded in Corning 8804BC white 384-well assay plates at density of 1,000, 1,000, 1,000, 1,500 and 7,500 cells per well, for MV4-11, HD-MB03, MB004, MB002 and MHH-CALL4 cells respectively. After overnight incubation at 37° C. in a humidified 5% CO2 incubator, cells were treated with compounds in dose-response format using a Pintool on a Biomek FX^P Laboratory Automation Workstation (Beckman Coulter). […] After 72 h incubation, cell proliferation was assessed using Cell Titer-Glo (CTG) luminescent cell viability assay (Promega) according to the manufacturer's instruction. Luminescence signal was measured using an Envision plate reader (Perkin-Elmer).
Data set [3] has as its system caspase 3/7 activity in Mv4:11 cells. Put plainly: Caspase 3/7 activity assay. The format is cell-based, human. The settings on record: Caspase-Glo, time points 4, 8 and 24 hours; 10 and 100 nM.
Data set [4] is described as follows: Pharmacokinetics study in CD1 mice. The settings on record: 3 mg/kg IV. The format is in vivo. Here is the method: Healthy female CD1 mice (8-12 weeks old) weighing between 20 to 30 g were procured from Global, India. Three mice were housed in each cage. Temperature and humidity were maintained at 22±3° C. and 30-70%, respectively and illumination was controlled to give a sequence of 12 hr light and 12 hr dark cycle. Temperature and humidity were recorded by auto-controlled data logger system. All the animals were provided laboratory rodent diet (Envigo Research private Ltd, Hyderabad). Reverse osmosis water treated with ultraviolet light was provided ad libitum. Formulation vehicle: 5% v/v NMP: 5% v/v Solute HS-15 and 90% v/v normal saline. […] The dosing volume for intravenous was 5 mL/kg and for oral administration 10 mL/kg. Blood samples (approximately 60 μL) were collected under light isoflurane anesthesia (Surgivet®) from retro orbital plexus from a set of three mice at 0.08 (for IV only), 0.25, 0.5, 1, 2, 4, 6 (for PO only), 8, 12 and 24 hr. Immediately after blood collection, plasma was harvested by centrifugation at 4000 rpm, 10 min at […] and samples were stored at −70±10° C. until bioanalysis. […] Non-Compartmental-Analysis tool of Phoenix WinNonlin® (Version 8.0) was used to assess the pharmacokinetic parameters. Peak plasma concentration (Cmax) and time for the peak plasma concentration (Tmax) were the observed values. The areas under the concentration time curve (AUClast and AUCinf) were calculated by linear trapezoidal rule. The terminal elimination rate constant, ke was determined by regression analysis of the linear terminal portion of the log plasma concentration-time curve. Clearance was estimated as Dose/AUCinf and Vss as CL*MRT. The oral bioavailability was calculated as ratio of dose normalized AUC of oral and intravenous group multiplied by 100.

The test system of data set [5] is MV4-11 cells. Put plainly: MV-4-11 cell viability assay. As to conditions: for EC50: Homo sapiens.
Experimental: MV-4-11 cell line was purchased from the American Type Culture Collection (ATCC, Manassas, VA). The cells were cultured according to recommendations in IMDM cell culture media (ATCC). […] Compounds were transferred to the assay plate from a dose-response plate using a Pintool on a Biomek FXP Laboratory Automation Workstation (Beckman Coulter). […] Luminescence was measured on an Envision plate reader (Perkin-Elmer).
After overnight incubation at 37° C. in a humidified 5% CO2 incubator, cells were treated with compounds in dose-response format using a Pintool on a Biomek FX^P Laboratory Automation Workstation (Beckman Coulter). […] Luminescence signal was measured using an Envision plate reader (Perkin-Elmer).
Another data set has as its target T3, GSPT1 (Homo sapiens, UniProt P15170+Q96SW2).
T3 construct: endogenous in cells; host or cells: MV4-11
The experiment in a line: Immunoblot analysis of GSPT1 degradation in MV4-11 cells. Further details: Dmax: dose or concentration left out as unconfirmed. In kind it is cell-based. Here is the method:
as §1

The target in another data set is T4, 6XHis-CRBN-DDB1 protein (Homo sapiens, UniProt Q96SW2).
T4 construct: 6XHis (N)
The experiment in a line: CRBN fluorescence polarization assay. The format is binding. As to conditions: class symbols; read-out: CRBN FP IC50. Here is the method:
6XHis-CRBN-DDB1 protein (200 nM) and Cy5-O-Len probe (30 nM) were combined in 20 mM HEPES pH 7, 150 mM NaCl, 0.005% Tween-20 assay buffer. […] The plates were incubated in the dark for 1 hour at room temperature and then read on an Envision plate reader (PerkinElmer, Massachusetts, USA).

The mark [6] stands for this setting: MV4-11, 72 h, read-out: MV4-11 EC50.
Setting [7] is: MV4-11, read-out: antiproliferative activity in MV4-11, EC50.

Like-named read-outs stand apart in the source and are kept apart here.

T2 sequence (Q96SW2 whole entry partner): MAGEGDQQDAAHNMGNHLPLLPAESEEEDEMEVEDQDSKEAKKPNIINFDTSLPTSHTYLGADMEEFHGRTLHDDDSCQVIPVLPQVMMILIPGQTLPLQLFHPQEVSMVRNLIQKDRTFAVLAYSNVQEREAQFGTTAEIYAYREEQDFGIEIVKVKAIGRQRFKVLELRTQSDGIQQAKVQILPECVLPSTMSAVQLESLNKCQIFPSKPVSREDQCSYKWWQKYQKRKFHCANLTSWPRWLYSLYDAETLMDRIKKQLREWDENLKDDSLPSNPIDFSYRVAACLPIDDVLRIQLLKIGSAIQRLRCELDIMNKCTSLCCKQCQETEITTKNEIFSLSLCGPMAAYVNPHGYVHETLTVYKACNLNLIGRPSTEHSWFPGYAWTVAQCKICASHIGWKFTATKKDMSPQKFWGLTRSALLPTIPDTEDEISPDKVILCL
T2 sequence (Q16531 2-1140 partner limits assumed): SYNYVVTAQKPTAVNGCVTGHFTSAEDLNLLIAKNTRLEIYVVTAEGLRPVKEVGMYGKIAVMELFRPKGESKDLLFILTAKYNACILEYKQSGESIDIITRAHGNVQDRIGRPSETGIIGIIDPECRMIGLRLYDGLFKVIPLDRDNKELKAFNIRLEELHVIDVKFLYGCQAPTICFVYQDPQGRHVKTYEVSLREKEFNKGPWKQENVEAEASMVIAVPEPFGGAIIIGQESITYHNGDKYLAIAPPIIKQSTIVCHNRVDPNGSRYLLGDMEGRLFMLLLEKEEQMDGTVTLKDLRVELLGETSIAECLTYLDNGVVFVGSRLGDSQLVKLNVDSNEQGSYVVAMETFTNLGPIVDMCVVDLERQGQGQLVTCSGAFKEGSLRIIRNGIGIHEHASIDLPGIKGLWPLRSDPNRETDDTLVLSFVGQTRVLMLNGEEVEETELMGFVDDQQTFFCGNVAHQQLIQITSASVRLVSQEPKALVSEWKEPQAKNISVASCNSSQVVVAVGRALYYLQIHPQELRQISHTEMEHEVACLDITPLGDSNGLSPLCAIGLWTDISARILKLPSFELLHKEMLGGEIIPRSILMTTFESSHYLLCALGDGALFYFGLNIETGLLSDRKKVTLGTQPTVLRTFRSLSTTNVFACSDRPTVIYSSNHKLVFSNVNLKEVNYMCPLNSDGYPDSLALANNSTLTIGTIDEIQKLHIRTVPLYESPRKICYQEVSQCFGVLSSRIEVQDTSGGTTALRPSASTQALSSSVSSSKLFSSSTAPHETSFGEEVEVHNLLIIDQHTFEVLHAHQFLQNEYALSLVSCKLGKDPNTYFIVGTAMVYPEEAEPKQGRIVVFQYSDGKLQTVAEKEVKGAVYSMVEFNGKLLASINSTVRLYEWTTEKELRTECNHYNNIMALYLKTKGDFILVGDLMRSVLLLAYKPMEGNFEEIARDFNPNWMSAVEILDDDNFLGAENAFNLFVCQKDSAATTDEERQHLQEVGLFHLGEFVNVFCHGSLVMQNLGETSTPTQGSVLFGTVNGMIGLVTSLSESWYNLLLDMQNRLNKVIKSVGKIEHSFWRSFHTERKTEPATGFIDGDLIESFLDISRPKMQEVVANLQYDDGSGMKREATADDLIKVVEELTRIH
T2 sequence (Q13422 whole entry): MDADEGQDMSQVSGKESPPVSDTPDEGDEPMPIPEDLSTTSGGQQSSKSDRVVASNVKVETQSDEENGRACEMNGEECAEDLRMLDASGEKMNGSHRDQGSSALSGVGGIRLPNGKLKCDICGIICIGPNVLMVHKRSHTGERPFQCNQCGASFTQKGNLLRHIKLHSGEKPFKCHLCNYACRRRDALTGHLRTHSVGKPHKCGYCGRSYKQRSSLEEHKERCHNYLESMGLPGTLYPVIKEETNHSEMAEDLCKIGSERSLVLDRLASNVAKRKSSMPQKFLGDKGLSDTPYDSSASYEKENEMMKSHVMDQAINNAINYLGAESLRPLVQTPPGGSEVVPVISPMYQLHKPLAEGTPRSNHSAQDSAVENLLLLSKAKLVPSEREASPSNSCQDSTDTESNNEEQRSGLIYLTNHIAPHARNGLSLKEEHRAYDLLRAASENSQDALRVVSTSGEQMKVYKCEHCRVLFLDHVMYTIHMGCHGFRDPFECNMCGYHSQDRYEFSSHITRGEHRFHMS
T4 sequence (Q96SW2 whole entry): as the sequence (Q96SW2 whole entry partner) above
T4 sequence (Q16531 whole entry partner): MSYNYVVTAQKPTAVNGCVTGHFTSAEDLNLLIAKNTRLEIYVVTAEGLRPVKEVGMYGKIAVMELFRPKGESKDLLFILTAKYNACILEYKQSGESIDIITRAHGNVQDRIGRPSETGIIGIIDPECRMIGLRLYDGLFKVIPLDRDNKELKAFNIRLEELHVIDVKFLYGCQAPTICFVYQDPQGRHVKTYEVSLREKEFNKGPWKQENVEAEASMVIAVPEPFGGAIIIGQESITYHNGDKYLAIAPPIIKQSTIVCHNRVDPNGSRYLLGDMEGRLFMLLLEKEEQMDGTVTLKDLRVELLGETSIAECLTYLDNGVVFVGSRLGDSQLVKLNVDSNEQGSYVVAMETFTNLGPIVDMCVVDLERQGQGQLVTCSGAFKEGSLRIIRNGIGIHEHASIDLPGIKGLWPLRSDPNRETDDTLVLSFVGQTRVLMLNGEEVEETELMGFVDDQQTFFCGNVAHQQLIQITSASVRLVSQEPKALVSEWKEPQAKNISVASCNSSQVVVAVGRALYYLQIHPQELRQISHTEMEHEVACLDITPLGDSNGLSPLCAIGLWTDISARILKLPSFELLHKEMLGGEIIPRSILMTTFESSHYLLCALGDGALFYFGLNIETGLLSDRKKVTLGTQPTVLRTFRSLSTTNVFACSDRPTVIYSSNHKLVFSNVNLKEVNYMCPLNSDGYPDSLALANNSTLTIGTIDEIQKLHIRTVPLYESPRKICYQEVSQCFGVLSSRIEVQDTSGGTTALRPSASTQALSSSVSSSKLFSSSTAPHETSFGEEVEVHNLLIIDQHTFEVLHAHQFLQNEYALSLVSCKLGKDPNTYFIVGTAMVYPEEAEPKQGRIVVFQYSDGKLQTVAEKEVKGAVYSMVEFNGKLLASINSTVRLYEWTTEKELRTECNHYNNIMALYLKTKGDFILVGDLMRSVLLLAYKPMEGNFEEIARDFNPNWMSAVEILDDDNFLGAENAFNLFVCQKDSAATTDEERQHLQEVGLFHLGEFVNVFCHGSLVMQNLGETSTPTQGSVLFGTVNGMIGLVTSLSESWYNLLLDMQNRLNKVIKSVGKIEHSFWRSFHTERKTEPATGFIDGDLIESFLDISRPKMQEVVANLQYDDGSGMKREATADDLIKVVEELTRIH
T1 sequence (P15170 whole entry): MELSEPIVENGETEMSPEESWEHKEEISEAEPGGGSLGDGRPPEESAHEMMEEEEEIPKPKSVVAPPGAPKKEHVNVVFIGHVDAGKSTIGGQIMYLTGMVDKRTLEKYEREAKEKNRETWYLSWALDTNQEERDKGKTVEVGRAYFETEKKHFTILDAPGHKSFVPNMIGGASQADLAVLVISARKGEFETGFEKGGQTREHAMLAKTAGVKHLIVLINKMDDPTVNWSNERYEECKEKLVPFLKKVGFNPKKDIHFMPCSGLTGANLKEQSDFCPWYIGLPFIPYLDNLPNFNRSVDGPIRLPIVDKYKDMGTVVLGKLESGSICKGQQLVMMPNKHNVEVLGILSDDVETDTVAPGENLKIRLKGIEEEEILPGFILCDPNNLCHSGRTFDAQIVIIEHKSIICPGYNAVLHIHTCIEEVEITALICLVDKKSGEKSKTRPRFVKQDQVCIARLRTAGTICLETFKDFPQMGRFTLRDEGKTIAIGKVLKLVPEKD
T1 sequence (Q96SW2 whole entry): as the sequence (Q96SW2 whole entry partner) above
T1 sequence (Q16531 2-1140 partner limits assumed): as the sequence (Q16531 2-1140 partner limits assumed) above
T3 sequence (P15170 whole entry): as the sequence (P15170 whole entry) above
T3 sequence (Q96SW2 whole entry): as the sequence (Q96SW2 whole entry partner) above
T3 sequence (Q16531 2-1140 partner limits assumed): as the sequence (Q16531 2-1140 partner limits assumed) above

As for `O=C1CCC(N2Cc3cc(NS(=O)(=O)c4ccccc4)ccc3C2=O)C(=O)N1` (stereo not drawn) [compound 38, N-(2-(2,6-dioxopiperidin-3-yl)-1-oxoisoindolin-5-yl)benzenesulfonamide], the DC50 in [1] is above 10 µM.
As a reminder, the clearance is a measure of how efficiently the substance is removed, as volume per time. One may read the EC50 as the concentration needed to bring the measured effect to its halfway point. Turning to `O=C1CCC(N2C(=O)c3ccc(NS(=O)(=O)c4ccccc4OC(F)(F)F)cc3C2=O)C(=O)N1` (stereo not drawn) [compound 1, N-(2-(2,6-dioxopiperidin-3-yl)-1,3-dioxoisoindolin-5-yl)-2-(trifluoromethoxy)benzenesulfonamide], on IKZF1, the “IKZF1 degradation at 4 hours” value was “did not significantly degrade IKZF1” and the “IKZF1 protein abundance after 24 hours” value is “dose-dependent decrease”. For the same molecule, the “Sol. (aqueous solubility)” value in “Aqueous solubility assay” amounted to 67 µM. Moreover, in the data set with MV4-11 cells [2], the “antiproliferative effect in presence of lenalidomide” value is on record as “abrogating the antiproliferative effects”. The “time point at which caspase activation was observed” value in [3] was determined as 8 h. Further, in data set [4], the clearance was 0.0276 L/h/kg, the “terminal elimination half-life (t1/2)” value was found to be 3.4 h and the volume of distribution was determined as 0.15 L/kg. Moreover, in the data set on MV4-11 cells [5] (setting [6]), the EC50 stood at 0.0015 µM. Moreover, the EC50 in the data set on MV4-11 cells [5] (setting [7]) is 0.0015 µM.
Consider `O=C1CCC(N2C(=O)c3ccc(NS(=O)(=O)c4ccccc4)cc3C2=O)C(=O)N1` (stereo not drawn) [compound 20, N-(2-(2,6-dioxopiperidin-3-yl)-1,3-dioxoisoindolin-5-yl)benzenesulfonamide], for which, in the data set “Aqueous solubility assay”, the “Sol. (aqueous solubility)” value was 71 µM. Also, the EC50 with MV4-11 cells [5] (setting [6]) is above 10 µM. Also, the “cell potency in MV4-11 cells (in words)” value in the data set on MV4-11 cells [5] (MV4-11 cells) is “inactive”.
On to `Cc1ccc(S(=O)(=O)Nc2ccc3c(c2)C(=O)N(C2CCC(=O)NC2=O)C3=O)cc1Cl` (stereo not drawn) [compound 7, 3-chloro-N-(2-(2,6-dioxopiperidin-3-yl)-1,3-dioxoisoindolin-5-yl)-4-methylbenzenesulfonamide], for which, in the data set with MV4-11 cells [5] (setting [6]), the EC50 is above 10 µM.
With `O=C1CCC(N2C(=O)c3ccc(NS(=O)(=O)c4cccc(OC(F)(F)F)c4)cc3C2=O)C(=O)N1` (stereo not drawn) [compound 2, N-(2-(2,6-dioxopiperidin-3-yl)-1,3-dioxoisoindolin-5-yl)-3-(trifluoromethoxy)benzenesulfonamide], the “effects on the protein levels of IKZF1 by immunoblotting” value at IKZF1 is “no effects”. The “IKZF1 protein abundance after 24 hours” value at IKZF1 is recorded as “dose-dependent decrease”. Further, the “Sol. (aqueous solubility)” value in “Aqueous solubility assay” turned out to be 64 µM. Further, the “effects on the protein levels of GSPT1 by immunoblotting” value at GSPT1 (MV4-11 cells) is listed as “no effects”. The EC50 in the data set on MV4-11 cells [5] (setting [6]) is above 10 µM; in the data set with MV4-11 cells [5] (setting [7]), 0.052 µM.
For orientation: Dmax means the largest share of the target that was removed. Consider `Cc1c(Cl)cccc1S(=O)(=O)Nc1ccc2c(c1)C(=O)N(C1CCC(=O)NC1=O)C2=O` (stereo not drawn) [compound 5, 3-chloro-N-(2-(2,6-dioxopiperidin-3-yl)-1,3-dioxoisoindolin-5-yl)-2-methylbenzenesulfonamide], for which the “IKZF1 degradation at 4 hours” value on IKZF1 is recorded as “did not significantly degrade IKZF1”. Further, the “Sol. (aqueous solubility)” value in “Aqueous solubility assay” turned out to be 64 µM. Besides, the Dmax on GSPT1 (MV4-11, read-out: GSPT1 maximum degradation efficacy, Dmax) is 60%. In the data set on MV4-11 cells [2], the “antiproliferative effect in presence of lenalidomide” value is given as “abrogating the antiproliferative effects”. Also, the “time point at which caspase activation was observed” value in data set [3] is 24 h. Further, the EC50 in the data set with MV4-11 cells [5] (setting [6]) was 0.052 µM.
In the case of `O=C1CCC(N2Cc3cc(CNC(=O)C(F)(F)c4ccc(Cl)cc4)ccc3C2=O)C(=O)N1` (stereo not drawn) [CC90009, reference compound], the “Sol. (aqueous solubility)” value in the data set “Aqueous solubility assay” came to 77 µM.
What is called IC50 is the concentration at which inhibition is half-maximal. As for `Cc1ccc(CS(=O)(=O)Nc2ccc3c(c2)C(=O)N(C2CCC(=O)NC2=O)C3=O)cc1` (stereo not drawn) [compound 58, N-(2-(2,6-dioxopiperidin-3-yl)-1,3-dioxoisoindolin-5-yl)-1-(p-tolyl)methanesulfonamide], on 6XHis-CRBN-DDB1 protein, the IC50 was below 1 µM.
With `O=C1CCC(N2Cc3cc(NS(=O)(=O)c4cccc(OC(F)(F)F)c4)ccc3C2=O)C(=O)N1` (stereo not drawn) [compound 43, N-(2-(2,6-dioxopiperidin-3-yl)-1-oxoisoindolin-5-yl)-3-(trifluoromethoxy)benzenesulfonamide], the DC50 in data set [1] was below 1 µM.
Still for that read-out and setting: then `O=C1CCC(N2Cc3cc(NS(=O)(=O)c4ccccc4C(F)(F)F)ccc3C2=O)C(=O)N1` (stereo not drawn) [compound 44, N-(2-(2,6-dioxopiperidin-3-yl)-1-oxoisoindolin-5-yl)-2-(trifluoromethyl)benzenesulfonamide], with above 10 µM.
As to `O=C1CCC(N2Cc3cc(CNC(=O)C(F)(F)c4ccc(Cl)cc4)ccc3C2=O)C(=O)N1` (stereo not drawn) [CC-90009, reference compound], the Dmax on IKZF1 (24 h) was above 90%; on GSPT1 (MV4-11 cells, 24 h, read-out: GSPT1 Dmax), above 90%. Moreover, at GSPT1 (MV4-11 cells, 4 h, at 10 μM, read-out: GSPT1 maximum degradation efficacy, Dmax), the Dmax at 10 µM stood at 74%.
With `Cc1noc(C)c1S(=O)(=O)Nc1ccc2c(c1)C(=O)N(C1CCC(=O)NC1=O)C2=O` (stereo not drawn) [compound 60, N-(2-(2,6-dioxopiperidin-3-yl)-1,3-dioxoisoindolin-5-yl)-3,5-dimethylisoxazole-4-sulfonamide], the IC50 at 6XHis-CRBN-DDB1 protein was below 1 µM.
For the molecule `O=C1CCC(N2C(=O)c3ccc(NS(=O)(=O)c4ccc(F)cc4Cl)cc3C2=O)C(=O)N1` (stereo not drawn) [compound 67, 2-chloro-N-(2-(2,6-dioxopiperidin-3-yl)-1,3-dioxoisoindolin-5-yl)-4-fluorobenzenesulfonamide], in data set [1], the DC50 was above 10 µM. The IC50 at 6XHis-CRBN-DDB1 protein was below 1 µM.
For the molecule `CC(C)(C)c1ccc(S(=O)(=O)Nc2ccc3c(c2)CN(C2CCC(=O)NC2=O)C3=O)cc1` (stereo not drawn) [compound 46], in data set [1], the DC50 is below 1 µM.
Consider `O=C1CCC(N2C(=O)c3ccc(NS(=O)(=O)c4cccc(Cl)c4F)cc3C2=O)C(=O)N1` (stereo not drawn) [compound 61, 3-chloro-N-(2-(2,6-dioxopiperidin-3-yl)-1,3-dioxoisoindolin-5-yl)-2-fluorobenzenesulfonamide], for which, at 6XHis-CRBN-DDB1 protein, the IC50 is below 1 µM.

For the origin of these results see patent publication US12454518B2, “Substituted N-(2-(2,6-dioxopiperidin-3-yl)-1,3-dioxoisoindolin-5-yl)arylsulfonamide analogs as modulators of cereblon protein” (ST. JUDE CHILDREN'S RESEARCH HOSPITAL, INC., priority 2020, dated 2025).
